Assay results published in patent publication EP0357092B1, “Preparation of diacetoxybenzylidene diacetates” (KUREHA KAGAKU KOGYO KABUSHIKI KAISHA, priority 1983, dated 1985).
Like-named read-outs stand apart in the source and are kept apart here.

Legend:
[1] = test system: migration of polymorphonuclear leukocytes (PMN) to the site of inflammation; assay: Suppression of migration of polymorphonuclear leukocytes, carboxymethylcellulose-pouch method; format: in vivo, male Donryu rats; conditions: rats, PMN counted 6 hours after injection into pouch
Protocol: While using groups of male Donryu rats (six rats per group) and following the carboxymethylcellulose-pouch method (refer to Ishikawa et al. […] ZASSHI (Journal of the Pharmaceutical Society of Japan), 88, 1472, 1968), the extent of inhibition of migration of polymorphonuclear leukocytes to the site of inflammation by present substance No.1 was examined. The specimen (present substance No.1) was dispersed in an aqueous 0.2 % solution of carboxymethylcellulose and the dispersion was administered to each rat at a predetermined dose rate, and only the aqueous 0.2 % solution of carboxymethylcellulose was administered to each rat of control group. The test was carried out by injecting the aqueous 0.2 % solution of carboxymethyl-cellulose into the pouch formed in the body of the rat and after 6 hours of the injection, the number of polymorphonuclear leukocytes in the exudate into the pouch was counted. […]

[2] = Acute mammalian toxicity (oral LD50); conditions: mouse, in vivo
Protocol: After dispersing present substance No.1 in an aqueous 0.2 % solution of carboxymethylcellulose, the aqueous dispersion was orally administered to each of male Jcl-ICR mice. As a result, LD₅₀ (acute, oral) of the tested substance was larger than 4,000 mg/kg.

[3] = test system: proliferation of granuloma; assay: Suppression of proliferation of granuloma, filter paper implant method of Fujimura; format: in vivo, male Donryu rats; conditions: once a day for 10 days, rats, dried granuloma weighed after 11 days
Protocol: While using groups of male Donryu rats in the fifth week after birth (5 rats per group), the activity of present substance No.1 in suppressing the proliferation of granuloma was tested by the method of Fujimura (refer to OYOYAKURI (Pharmacometrics), 19 (3), 329, 1980).
After soaking sheets of filter paper of 13 mm in diameter and 28 mg in weight into an aqueous 2% solution of carboxymethylcellulose containing both dihydroxystreptomycin and penicillin, each of 10⁶ unit at the respective concentration of 0.1 mg/ml, each of the thus treated sheets was buried subcutaneously into the back of each rat under anaesthesia by ether. […] After 11 days of the treatment, granuloma formed in the rat was removed, dried for 24 hours at 70°C and weighed.

CC(=O)Oc1ccc(C(OC(C)=O)OC(C)=O)cc1OC(C)=O [Present Substance No.1, 3,4-diacetoxybenzylidene diacetate]
Rate of suppression of migration of PMN (%) ([1]; dose rate 5 mg/kg): 41.2%
Rate of suppression of migration of PMN (%) ([1]; dose rate 10 mg/kg): 48.0%
Rate of suppression of migration of PMN (%) ([1]; dose rate 50 mg/kg): 51.9%
LD50 ([2]; male, Jcl-ICR, po): > 4000 mg/kg
Granuloma Rate of Suppression (%) ([3]; dose rate 5 mg/kg/day oral): 42.8%
Granuloma Rate of Suppression (%) ([3]; dose rate 10 mg/kg/day oral): 55.3%
Granuloma Rate of Suppression (%) ([3]; dose rate 50 mg/kg/day oral): 61.4%

COc1ccc2c(c1)c(CC(=O)O)c(C)n2C(=O)c1ccc(Cl)cc1 [Indomethacin, reference compound]
Rate of suppression of migration of PMN (%) ([1]; dose rate 5 mg/kg): 35.7%

C[C@]12C=CC(=O)C=C1CC[C@@H]1[C@@H]2[C@@H](O)C[C@@]2(C)[C@H]1CC[C@]2(O)C(=O)CO [Prednisolone, reference compound]
Rate of suppression of migration of PMN (%) ([1]; dose rate 5 mg/kg): 37.5%
Granuloma Rate of Suppression (%) ([3]; dose rate 3 mg/kg/day oral): 42.2%

O=Cc1ccc(O)c(O)c1 [3,4-dihydroxy-benzaldehyde, 3,4-dihydroxybenzaldehyde, reference compound]
Rate of suppression of migration of PMN (%) ([1]; dose rate 50 mg/kg): 27.5%
LD50 ([2]; oral, male Jcl-ICR mice, dispersed in aqueous 0.2 % carboxymethylcellulose, read-out: LD₅₀ (acute, oral)): 1500 mg/kg
Granuloma Rate of Suppression (%) ([3]; dose rate 50 mg/kg/day oral): 35.6%
